Like-named read-outs stand apart in the source and are kept apart here.
Assays:
HCV replicon NK/R2AN = assay: Evaluation of anti-HCV activity 2: inhibition of HCV replication, huh7.5.1 cells with replicon NK/R2AN, renilla luciferase; format: cell-based; details: for EC50: Hepatitis C virus; for EC50 (in words): duplicated HCV treated with compound
Protocol: To evaluate the anti-HCV activity, that is the activity to inhibit HCV replication, of the compound represented by formula 1 of the present invention, the following experiment was performed.
The hepatoma cell line huh7.5.1 having NK/R2AN, the replicon with which the replication and translation of HCV could be measured, was distributed in a 12-well cell culture plate at the density of 50,000 cells/well. The cells were cultured in DMEM (Dulbecco's Modified Eagle's Medium 12800-017, GIBCO Co.) supplemented with 10% (v/v) FBS (Fetal Bovine Serum SH30406.02, Hyclone Co.), 1% (v/v) antibiotics (penicillin/streptomycin solution SV30010, Hyclone Co.), and G418 (600 μg/mL, Calbiochem) in a 37° C. 6.0% CO2 incubator (CO2 Incubator 311, Forma Scientific Co, Lnc. USA) for 24 hours to lead cell attachment on the plate. Then, the cells were inoculated with HCV having renilla luciferase gene as a reporter for 3 hours. Upon completion of the virus inoculation, the cell culture medium was replaced with the medium containing the compounds prepared in Examples 1˜24 were added to the culture medium at the concentrations of 40 pM˜1 μM each. The cells were cultured in a 37° C. 6.0% CO2 incubator (CO2 Incubator 311, Forma Scientific Co, Lnc. USA) for 3 days. Three days after the infection, the cell culture medium was collected to measure the cytotoxicity in the following Experimental Example 3. The cells attached on the plate were washed with PBS (phosphate buffered saline) and then lysed by treating 100 μl of 1× passive lysis buffer (Promega, E1941). The cell lysate (10 μl) was added to renilla luciferase assay reagent (50 μl) in renilla luciferase assay system (Promega, E2820), followed by measurement of luminescence for 10 seconds using the luciferase measure program with Luminometer (GLOMAX 20/20 Luminometer, Promega). At this time, the measurement of luminescence was performed in triplicate with the groups treated with the compounds of Examples 1˜24 and the non-treated control group. The mean value was calculated and compared. The luminescence of each compound over the concentration was converted into EC50 (half maximal effective concentration) by using sigma plot program, and the results are shown in Table 3. At this time, when EC50 was under 100 pM, it was marked as A; when EC50 was in the range of 100 pM 1 nM, it was marked as B; when EC50 was in the range of 1 nM˜100 nM, it was marked as C; and when EC50 was over 100 nM, it was marked as D. The results are shown in Table 3.

HCV (JFH-5aFlucm4) = assay: Evaluation of anti-HCV activity 1: huh7.5.1 cells inoculated with HCV carrying renilla luciferase reporter; format: cell-based; details: Hepatitis C virus
Protocol: To evaluate the anti-HCV activity of the compound represented by formula 1 of the present invention, the following experiment was performed.
The hepatoma cell line huh7.5.1 was distributed in a 12-well cell culture plate at the density of 50,000 cells/well. The cells were cultured in DMEM (Dulbecco's Modified Eagle's Medium 12800-017, GIBCO Co.) supplemented with 10% (v/v) FBS (Fetal Bovine Serum SH30406.02, Hyclone Co.) and 1% (v/v) antibiotics (penicillin/streptomycin solution SV30010, Hyclone Co.) in a 37° C. 6.0% CO2 incubator (CO2 Incubator 311, Forma Scientific Co, Lnc. USA) for 24 hours to lead cell attachment on the plate. Then, the cells were inoculated with HCV (JFH-5aFlucm4, PLoS One. 2011; 6(8):e228808.) having renilla luciferase gene as a reporter for 3 hours. Upon completion of the virus inoculation, the cell culture medium was replaced with the medium containing the compounds prepared in Examples 1˜24 at the concentration of 1 μM each. The cells were cultured in a 37° C. 6.0% CO2 incubator (CO2 Incubator 311, Forma Scientific Co, Lnc. USA) for 3 days. Three days after the infection, the cell culture medium was collected to measure the cytotoxicity in the following Experimental Example 3. The cells attached on the plate were washed with PBS (phosphate buffered saline) and then lysed by treating 100 μl of 1× passive lysis buffer (Promega, E1941). The cell lysate (10 μl) was added to renilla luciferase assay reagent (50 μl) in renilla luciferase assay system (Promega, E2820), followed by measurement of luminescence for 10 seconds using the luciferase measure program with Luminometer (GLOMAX 20/20 Luminometer, Promega). At this time, the measurement of luminescence was performed in triplicate with the groups treated with the compounds of Examples 1˜24 and the non-treated control group. The mean value was calculated and compared. The luminescence of each compound over the concentration was converted into EC50 (half maximal effective concentration) by using sigma plot program, and the results are shown in Table 2.

[1] = Huh-7.5.1, 72 h, read-out: EC50 grade
[2] = Huh-7.5.1, replicon huh7.5.1 cells, Table 3, read-out: EC50

CN(C)[C@@H](C(=O)N1CCC[C@H]1C(=O)Nc1ccc(-c2ccc(NC(=O)[C@@H]3CCCN3C(=O)[C@@H](c3ccccc3)N(C)C)cc2)cc1)c1ccccc1 [Example 14, (S,2S,2′S)—N,N′-(biphenyl-4,4′-diyl)bis(1-((S)-2-(dimethylamino)-2-phenylacetyl)pyrrolidine-2-carboxamide)]
EC50 (HCV replicon NK/R2AN; [1]): 0.1 to 1 nM | EC50 (HCV (JFH-5aFlucm4); [1]): 1 to 100 nM

COC(=O)N[C@@H](C(=O)N1CCC[C@H]1C(=O)Nc1ccc2c(c1)C(F)(F)c1cc(NC(=O)[C@@H]3CCCN3C(=O)[C@H](NC(=O)OC)c3ccccc3)ccc1-2)c1ccccc1 [Example 22, dimethyl((1R,1′R)-((2S,2′S)-2,2′-(((9,9-difluoro-9H-fluorene-2,7-diyl)bis(azandiyl))bis(carbonyl))bis(pyrrolidine-2,1-diyl))bis(2-oxo-1-phenylethane-2,1-diyl))dicarbamate]
EC50 (HCV replicon NK/R2AN; [1]): < 0.1 nM | EC50 (HCV replicon NK/R2AN; [2]): < 0.1 nM | EC50 (in words) (HCV replicon NK/R2AN): significantly low | EC50 (HCV (JFH-5aFlucm4); Huh-7.5.1): < 1 nM | EC50 (HCV (JFH-5aFlucm4); [1]): < 1 nM

COC(=O)N[C@@H](C(=O)N1CCC[C@]1(C)C(=O)Nc1ccc(-c2ccc(NC(=O)[C@@]3(C)CCCN3C(=O)[C@H](NC(=O)OC)c3ccccc3)cc2)cc1)c1ccccc1 [Example 12, dimethyl((1R,1′R)-((2S,2′S)-2,2′-(([1,1′-biphenyl]-4,4′-diylbis(azandiyl))bis(carbonyl))bis(2-methylpyrrolidine-2,1-diyl))bis(2-oxo-1-phenylethane-2,1-diyl))dicarbamate]
EC50 (HCV replicon NK/R2AN; [1]): 1 to 100 nM | EC50 (HCV (JFH-5aFlucm4); [1]): > 100 nM

COC(=O)N[C@@H](C(=O)N1CCC[C@H]1C(=O)Nc1ccc(-c2ccc(NC(=O)[C@@H]3CCCN3C(=O)[C@H](NC(=O)OC)c3ccccc3)cc2Cl)c(Cl)c1)c1ccccc1 [Example 6, dimethyl((1R,1′R)-((2S,2′S)-2,2′-(((2,2′-dichloro-[1,1′-biphenyl]-4,4′-diyl)bis(azandiyl))bis(carbonyl))bis(pyrrolidine-2,1-diyl))bis(2-oxo-1-phenylethane-2,1-diyl))dicarbamate]
EC50 (HCV replicon NK/R2AN; [1]): < 0.1 nM | EC50 (HCV replicon NK/R2AN; [2]): < 0.1 nM | EC50 (in words) (HCV replicon NK/R2AN): significantly low | EC50 (HCV (JFH-5aFlucm4); Huh-7.5.1): < 1 nM | EC50 (HCV (JFH-5aFlucm4); [1]): < 1 nM

COC(=O)N[C@@H](C(=O)N1CCC[C@H]1C(=O)Nc1ccc(-c2ccc(NC(=O)[C@@H]3CCCN3C(=O)[C@H](NC(=O)OC)c3ccccc3)c(C)c2)cc1C)c1ccccc1 [Example 1, dimethyl((1R,1′R)-((2S,2′S)-2,2′-(((3,3′-dimethyl-[1,1′-biphenyl]-4,4′-diyl)bis(azandiyl))bis(carbonyl))bis(pyrrolidine-2,1-diyl))bis(2-oxo-1-phenylethane-2,1-diyl))dicarbamate]
EC50 (HCV replicon NK/R2AN; [1]): 1 to 100 nM | EC50 (HCV (JFH-5aFlucm4); [1]): > 100 nM

CCN(CC)[C@@H](C(=O)N1CCC[C@H]1C(=O)Nc1ccc(-c2ccc(NC(=O)[C@@H]3CCCN3C(=O)[C@@H](c3ccccc3)N(CC)CC)cc2)cc1)c1ccccc1 [Example 15, (S,2S,2′S)—N,N-(biphenyl-4,4′-diyl)bis(1-((S)-2-(diethylamino)-2-phenylacetyl)pyrrolidine-2-carboxamide)]
EC50 (HCV replicon NK/R2AN; [1]): 0.1 to 1 nM | EC50 (HCV (JFH-5aFlucm4); [1]): 1 to 100 nM

COC(=O)N[C@@H](C(=O)N1CCC[C@@H]1C(=O)Nc1ccc(-c2ccc(NC(=O)[C@H]3CCCN3C(=O)[C@H](NC(=O)OC)c3ccccc3)cc2)cc1)c1ccccc1 [Example 8, dimethyl((1R,1′R)-((2R,2′R)-2,2′-(([1,1′-biphenyl]-4,4′-diylbis(azandiyl))bis(carbonyl))bis(pyrrolidine-2,1-diyl))bis(2-oxo-1-phenylethane-2,1-diyl))dicarbamate]
EC50 (HCV replicon NK/R2AN; [1]): 1 to 100 nM | EC50 (HCV (JFH-5aFlucm4); [1]): > 100 nM

COC(=O)N[C@H](C(=O)N1CCC[C@H]1C(=O)Nc1ccc(-c2ccc(NC(=O)[C@@H]3CCCN3C(=O)[C@@H](NC(=O)OC)C(C)(C)C)cc2)cc1)C(C)(C)C [Example 19, dimethyl(2S,2′S)-1,1′-((2S,2′R)-2,2′-(biphenyl-4,4′-diylbis(azandiyl))bis(oxomethylene)bis(pyrrolidine-2,1-diyl))bis(3,3-dimethyl-1-oxobutane-2,1-diyl)dicarbamate]
EC50 (HCV (JFH-5aFlucm4); [1]): 1 to 100 nM

COC(=O)N[C@@H](C(=O)N1CCCC[C@H]1C(=O)Nc1ccc(-c2ccc(NC(=O)[C@@H]3CCCCN3C(=O)[C@H](NC(=O)OC)c3ccccc3)cc2)cc1)c1ccccc1 [Example 10, dimethyl((1R,1′R)-((2S,2′S)-2,2′-(([1,1′-biphenyl]-4,4′-diylbis(azandiyl))bis(carbonyl))bis(piperidine-2,1-diyl))bis(2-oxo-1-phenylethane-2,1-diyl))dicarbamate]
EC50 (HCV replicon NK/R2AN; [1]): 1 to 100 nM | EC50 (HCV (JFH-5aFlucm4); [1]): > 100 nM

COC(=O)N[C@@H](C(=O)N1CCC[C@H]1C(=O)Nc1ccc2c(c1)C(C)(C)c1cc(NC(=O)[C@@H]3CCCN3C(=O)[C@H](NC(=O)OC)c3ccccc3)ccc1-2)c1ccccc1 [Example 23, dimethyl((1R,1′R)-((2S,2′S)-2,2′-(((9,9-dimethyl-9H-fluorene-2,7-diyl)bis(azandiyl))bis(carbonyl))bis(pyrrolidine-2,1-diyl))bis(2-oxo-1-phenylethane-2,1-diyl))dicarbamate]
EC50 (HCV replicon NK/R2AN; [1]): < 0.1 nM | EC50 (HCV replicon NK/R2AN; [2]): < 0.1 nM | EC50 (in words) (HCV replicon NK/R2AN): significantly low | EC50 (HCV (JFH-5aFlucm4); Huh-7.5.1): < 1 nM | EC50 (HCV (JFH-5aFlucm4); [1]): < 1 nM

COC(=O)N[C@@H](C(=O)N1CCC[C@H]1C(=O)Nc1ccc(-c2ccc(NC(=O)[C@@H]3CCCN3C(=O)[C@H](NC(=O)OC)C(C)C)cc2)cc1)C(C)C [Example 13, dimethyl(2R,2′R)-1,1′-((2S,2′S)-2,2′-(biphenyl-4,4′-diylbis(azandiyl))bis(oxomethylene)bis(pyrrolidine-2,1-diyl))bis(3-methyl-1-oxobutane-2,1-diyl)dicarbamate]
EC50 (HCV (JFH-5aFlucm4); [1]): > 100 nM

COC(=O)N[C@@H](C)C(=O)N1CCC[C@H]1C(=O)Nc1ccc(-c2ccc(NC(=O)[C@@H]3CCCN3C(=O)[C@H](C)NC(=O)OC)cc2)cc1 [Example 18, dimethyl(2S,2′S)-1,1′-((2S,2′R)-2,2′-(biphenyl-4,4′-diylbis(azandiyl))bis(oxomethylene)bis(pyrrolidine-2,1-diyl))bis(1-oxopropane-2,1-diyl)dicarbamate]
EC50 (HCV (JFH-5aFlucm4); [1]): > 100 nM

COC(=O)N[C@H](C(=O)N1CCC[C@H]1C(=O)Nc1ccc(-c2ccc(NC(=O)[C@@H]3CCCN3C(=O)[C@@H](NC(=O)OC)C(C)C)cc2)cc1)C(C)C [Example 20, dimethyl(2S,2′S)-1,1′-((2S,2′R)-2,2′-(biphenyl-4,4′-diylbis(azandiyl))bis(oxomethylene)bis(pyrrolidine-2,1-diyl))bis(3-methyl-1-oxobutane-2,1-diyl)dicarbamate]
EC50 (HCV (JFH-5aFlucm4); [1]): > 100 nM

O=C(Nc1ccc(-c2ccc(NC(=O)[C@@H]3CCCN3C(=O)[C@H]3CCCO3)cc2)cc1)[C@@H]1CCCN1C(=O)[C@H]1CCCO1 [Example 17]
EC50 (HCV (JFH-5aFlucm4); [1]): > 100 nM

From patent US9598362B2, “Benzidine derivative, method for preparing same, and pharmaceutical composition containing benzidine derivative for treating liver disease caused by hepatitis C virus” (priority 2013, dated 2017)
